Measurements: a melting point compilation (Tetko et al.; mined from patent text by program, amines drawn as free bases though some values may be those of a salt)

| Structure (SMILES) | melting point [°C] |
| --- | --- |
| CC1=Nc2c(-c3ccncc3)c(-c3ccc(F)cc3)nn2C(C)(C)C1 | 171 to 173 |
| O=C(O)c1cn(CC2CCC2)c2cc(Cl)ccc12 | 191 to 193 |
| CN1C(=O)CCc2cccc(N3CCN(CCCCOc4ccc5c(n4)NC(=O)NCC5)CC3)c21 | 80 to 82 |
| N#Cc1cccc(-c2cnc3[nH]c(=O)n(CC4CCCCC4)c3n2)c1 | 228 to 230 |
| COC(C)(C)C(=O)Nc1ccc(Sc2nc(C)cc(C)n2)cc1 | 123 to 125 |
| COc1cc(OCC(F)(F)C(F)F)nc(Oc2cc(C(F)(F)F)nn2C)c1 | 73 to 74 |
| NS(=O)(=O)c1cccc(CCO)c1 | 109 |
| O=C(O)COc1ccc(C(=NO)c2ccccc2F)c(Cl)c1Cl | 91 to 96 |
| Cc1cnc2c(NC(=O)c3c(Cl)cccc3Cl)cccc2c1Oc1ccccc1 | 168 to 170 |
| Cc1ccc(-c2ccccc2C#N)cc1Br | 104 to 106 |
| C/C(=C/C(=O)N(C)O)c1ccn(-c2c(C)cccc2C)c1 | 158 to 160 |
| N=C(N)NC(=O)c1cn(-c2ccnc3ccccc23)c2ncccc12 | 164 |
| C#Cc1ncn2c1CN(C)C(=O)c1cc(F)ccc1-2 | 207 to 208 |
| COc1ccc(NS(=O)(=O)c2sc3ccc(Cl)cc3c2C)cc1N1CCN(C(=O)OC(C)(C)C)CC1 | 100 to 103 |
| O=C1CC(c2ccccc2)NC(=O)C1C(=O)c1ccccc1[N+](=O)[O-] (stereo not drawn) | 146 to 150 |
| COc1cc2ncnc(N3CCN(C(=O)Nc4cccnc4)CC3)c2cc1OC | 208 to 209 |
| CCCCOCCOc1ccc(-c2ccc3c(c2)C=C(C(=O)Nc2ccc(/C(Cc4nccn4CCC)=N/OCC)cc2)CCN3CC(C)C)cc1 | 156 |
| O=c1cc(-c2ccc3c(c2)CCCC3)[nH]c2ccccc12 | 241 to 250 |
| COc1ccc(C2=NN(C3CCN(S(=O)(=O)c4ccccc4C)CC3)C(=O)C(C)(C)C2)cc1OC | 132 to 133 |

| Structure (SMILES) | melting point [°C] |
| --- | --- |
| CCCCCCCCCCCCCC/C=C\CN1C(=O)c2ccccc2C1=O | 56 to 60 |
| COc1c(F)c(F)c([N+](=O)[O-])c2c(=O)c(C(=O)O)cn(C3CC3)c12 | 216 to 221 |
| Cn1c(CO)nc2ccc(Sc3ccccc3)nc21 | 119 to 120 |
| COc1ccc(CCNC(=O)Cc2ccc(OC)c(OC)c2)cc1OC | 125 |
| CCCCN(Cc1ccc(-c2ccccc2-c2nnn[nH]2)cc1)c1ncccc1C(=O)O | 203 to 205 |
| COc1ccc(-c2ccc(C(=O)Nc3cc4ncc(CN5CCCC5)cc4cc3C)cc2)cc1 | 194 to 198 |
| Cn1ccc2c1CC(c1ccccc1)CC2=O (stereo not drawn) | 166 to 167 |
| N#Cc1ccc(OCCCCCCCCCCCCOc2ccc(C#N)c(C#N)c2)cc1C#N | 104 to 107 |
| Cn1c(-c2ccc(-n3cnc4ccccc43)cc2)cnc1[C@H](Cc1ccccn1)N(C=O)c1cc2ccccc2[nH]1 | 233 to 237 |
| CC(=O)NCC1CC1c1c(Br)ccc2nn(C)cc12 (stereo not drawn) | 135 to 137 |
| Cc1cc(NC(=S)Nc2cc(Cl)ccc2C)sn1 | 187 to 188 |
| CC(C)Oc1cc(CCCOc2nn(Cc3ccccc3)cc2CC(=O)O)n(Cc2ccc(Cl)cc2OC(C)C)n1 | 113 to 115 |
| COC(=N)CCCCc1csc(NC(=N)N)n1 | 143 to 145 |
| O=C(c1cccs1)c1cnn2c(-c3ccc(F)c(N(C(=O)OCC(Cl)(Cl)Cl)C(=O)OCC(Cl)(Cl)Cl)c3)ccnc12 | 94 to 97 |
| Cc1cc(C)c(-n2ccc3c(N)n[nH]c(=O)c32)c(C)c1 | 290 to 292 |
| Cc1c(C(=O)NCc2ccc3c(Br)c(OC(Cc4ccccc4)C(=O)O)ccc3c2)oc2ccccc12 (stereo not drawn) | 110 to 113 |
| CCCCNC(=O)C(=O)[C@H](CC(C)C)NC(=O)[C@@H](NS(=O)(=O)c1ccc(F)cc1)C(C)C | 108 to 110 |
| CN1CCNC(C(=O)Cn2c(-c3cc(Cl)ccn3)nc3cccnc32)C1 (stereo not drawn) | 174 to 175 |
| CC(C)c1ccc(-n2nnc(-c3ccc(O)cc3)n2)cc1 | 158 to 160 |
